# Data reported in ChEMBL document CHEMBL3616383, “Discovery of novel 5,6,7,8-tetrahydro[1,2,4]triazolo[4,3-a]pyridine derivatives as γ-secretase modulators” (Bioorg Med Chem Lett, 2015).
# Experiments:
# [1] = Lipophilicity, log D of the compound at pH 7.4 by reversed phase chromatography; type: physicochemical; conditions: buffer
# [2] = Inhibition of gamma-secretase in rat primary neuronal cells assessed as reduction in amyloid beta (1 to 42) production; type: cell-based; conditions: Primary neuron
# [3] = Drug level in C57BL/6J mouse cortex at 10 mg/kg, po after 3 hrs; type: ADME, organism-based; conditions: read-out: Drug uptake
# [4] = Inhibition of gamma-secretase in rat primary neuronal cells assessed as reduction in amyloid beta (1 to 40) production; type: cell-based; conditions: Primary neuron
# Mus musculus [5] = test: Reduction in amyloid beta (1 to 42) levels in C57BL/6J mouse plasma at 10 mg/kg, po after 3 hrs; type: functional
# [6] = Inhibition of gamma-secretase-mediated Notch processing in rat primary neuronal cells; type: cell-based; conditions: Primary neuron
# Mus musculus [7] = test: Reduction in amyloid beta (1 to 40) levels in C57BL/6J mouse brain at 10 mg/kg, po after 3 hrs; type: functional
# Mus musculus [8] = test: Reduction in amyloid beta (1 to 40) levels in C57BL/6J mouse plasma at 10 mg/kg, po after 3 hrs; type: functional
# [9] = Drug level in C57BL/6J mouse plasma at 10 mg/kg, po after 3 hrs; type: ADME, organism-based
# Mus musculus [10] = test: Reduction in amyloid beta (1 to 42) levels in C57BL/6J mouse brain at 10 mg/kg, po after 3 hrs; type: functional
Compound,chromatographic logD [1],IC50 [2] [nM],also measured
COc1cc(-c2nc3n(n2)CCCC3c2ccc(Cl)c(Cl)c2)ccc1-c1cnc(C)o1 (stereo not drawn),4.4,860,
COc1cc(-c2nnn3c2CCCC3c2ccc(Cl)c(Cl)c2)ccc1-c1cnc(C)o1 (stereo not drawn),4.2,210,
COc1cc(-c2nnc3n2CCOC3c2ccc(Cl)c(Cl)c2)ccc1-c1cnc(C)o1 (stereo not drawn),3.1,530,
COc1cc(-c2nnc3n2CCC3c2ccc(Cl)c(Cl)c2)ccc1-c1cnc(C)o1 (stereo not drawn),3.3,630,
COc1cc(-c2nnc3n2CCC=C3c2ccc(Cl)c(Cl)c2)ccc1-c1cnc(C)o1,3.6,600,
COc1cc(-c2nnc3n2CCCCC3c2ccc(Cl)c(Cl)c2)ccc1-c1cnc(C)o1 (stereo not drawn),3.5,220,
COc1cc(-c2nnc3n2CCCC3c2ccc(Cl)c(Cl)c2)ccc1-c1cnc(C)o1 (stereo not drawn),3.2,210,
COc1cc(-c2nnc3n2CCC[C@H]3c2ccc(Cl)cc2C(F)(F)F)ccc1-c1cnc(C)o1,3.5,830,
COc1cc(-c2nnc(Cc3ccc(Cl)c(Cl)c3)[nH]2)ccc1-c1cnc(C)o1,4.1,2000,
COc1cc(-c2nnc3n2CCCC3c2ccc(N3CCOCC3)cc2)ccc1-c1cnc(C)o1 (stereo not drawn),2.3,2300,

# Further lines, with some results ahead:
chromatographic logD [1],IC50 [2] [nM],Compound,also measured
2.8,570,COc1cc(-c2nnc3n2CCCC3c2ccc(Cl)cc2)ccc1-c1cnc(C)o1 (stereo not drawn),
3.2,220,COc1cc(-c2nnc3n2CCCC3c2ccc(Cl)c(C(F)(F)F)c2)ccc1-c1cnc(C)o1 (stereo not drawn),
2.9,510,COc1cc(-c2nnc3n2CCCC3c2ccc(C(F)(F)F)cc2)ccc1-c1cnc(C)o1 (stereo not drawn),
2.4,1900,COc1ccc(C2CCCn3c(-c4ccc(-c5cnc(C)o5)c(OC)c4)nnc32)cc1 (stereo not drawn),
2.8,370,COc1cc(-c2nnc3n2CCCC3c2cccc(C(F)(F)F)c2)ccc1-c1cnc(C)o1 (stereo not drawn),
2.4,1500,COc1cc(-c2nnc3n2CCCC3c2ccc(F)cc2)ccc1-c1cnc(C)o1 (stereo not drawn),
3,380,COc1cc(-c2nnc3n2CCCC3c2ccccc2C(F)(F)F)ccc1-c1cnc(C)o1 (stereo not drawn),
3.5,60,COc1cc(-c2nnc3n2CCC[C@@H]3c2ccc(Cl)cc2C(F)(F)F)ccc1-c1cnc(C)o1,concentration at 3 h [3]: 2330 ng/g; IC50 [4]: 490 nM; % of vehicle at 10 mg/kg (Mus musculus [5]): 31%; IC50 [6]: > 10000 nM; % of vehicle at 10 mg/kg (Mus musculus [7]): 75%; % of vehicle at 10 mg/kg (Mus musculus [8]): 63%; concentration at 3 h [9]: 6450 ng/mL; % of vehicle at 10 mg/kg (Mus musculus [10]): 50%
3.3,300,COc1cc(-c2nnc3n2CCCC3c2cc(C(F)(F)F)ccc2C(F)(F)F)ccc1-c1cnc(C)o1 (stereo not drawn),
3.5,84,COc1cc(-c2nnc3n2CCCC3c2ccc(Cl)cc2C(F)(F)F)ccc1-c1cnc(C)o1 (stereo not drawn),
